Data from patent publication US20250339631A1, “CONTROLLED RELEASE OF […] A SOURCE MATERIAL STORED OVER TIME” (Syqe Medical Ltd., priority 2022, published 2025).

What was measured:
[1] = Stability of ground cannabis in Syqe cartridges stored at 30° C.; assay type: physicochemical; details: 30° C.±2° C., 65% RH, baseline to 6 months; one-way ANOVA
Description: Additionally, to assess the effects of a warmer temperature on MC, Syqe cartridges were stored post-production at an elevated temperature and humidity of 30° C.±2° C. (65% RH+5% RH). Three different growing batches were analyzed at baseline and at 1, 2, 4 and 6 months of storage.
(§1) Analysis of cannabis inflorescences for the main phytocannabinoids (CBDA, CBD, CBGA, CBN, THCA and THC) was performed as follows: 100 mg of ground Cannabis inflorescences were weighed in duplicate from one container and extracted with 25 mL methanol then sonicated for 40 min and centrifuged at 3000 rpm for 5 min. All samples were filtered through a 0.22 μm PP filter vail prior to analysis. The dilution and quantitation were preformed corresponding to calibration curves. The main six phytocannabinoids were analyzed by ultra-high-performance liquid chromatography (UHPLC: […]) system with a refrigerated auto-sampler, thermostatic column oven and ultraviolet detector, Waters ACQUITY UPLC H-Class. Chromatographic separation was achieved using UPLC column Waters Acquity C18, 1.7 μm particles, 2.1×150 mm maintained at 30° C. The phytocannabinoids were separated using a gradient elution with mobile phases of 0.1% (v/v) formic acid in double-distilled water (phase A) and acetonitrile (phase B), respectively. A constant flow rate of 0.4 mL/min was employed throughout. The gradient profile varied from 70% to 100% B in 10.5 min, held for 0.5 min in these conditions and then returned to the initial conditions.
(§2) For THC and CBD, the concentrations of the acid and its neutral counterpart were summed and reported as the total content. For example, the concentration of total THC […] was calculated as: Total THC=THCA * 0.877+THC, with 0.877 being the molar ratio between the two compounds that corrects for a change in the mass of THCA as a result of the loss of CO2 (decarboxylation). This is shown in FIG. 7A: “U-HPLC analysis of the Bedrocan cultivar”.
(§3) R software (V.1.1.463) with tidyverse (17) package was used to analyze changes in outcome measures by one way ANOVA test, using Fisher's exact test analysis. All analyses were followed by a Tukey post-hoc test for multiple comparison. Data are presented as Mean±95% confidence interval (CI). Differences were considered significant at the p<0.05 level.

[2] = Long-term stability of ground cannabis packaged in Syqe cartridges at room temperature; assay type: physicochemical; details: 25° C.±2° C., RH 60%±5%, baseline to 24 months; one-way ANOVA
Description: (§4) In some embodiments, once cartridges are produced, they are stored, distributed and used at RT. In order to assess the shelf life of such cartridges, a long-term stability study was performed, during which cartridges were stored at 25° C.±2° C. (RH 60%±5%) in a calibrated and certified stability chamber (Memmert Constant climate chamber HPP260). 9, 6, 9, 8, 7, 4 and 4 separate growing batches were tested at baseline and after 3, 6, 9, 12, 18 and 24 months, respectively. At each time point samples of the ground inflorescence within the cartridges were analyzed for LOD and for the amount (mg) of each of the major phytocannabinoids (CBDA, CBD, CBGA, CBN, THCA and THC). Of the same batches, THC aerosolized by the Syqe inhaler was analyzed at baseline and at 6, 9, 18 and 24 months.
as §1, §2, §3

[3] = Stability of ground MC powder stored under refrigeration, pre-packaging; assay type: physicochemical; details: 5° C.±2° C., baseline to 3 months post grinding; one-way ANOVA
Description: In the described experiment, Bedrocan strain MC powder was stored at 5° C.±2° C. with up to 12% relative humidity (RH) in a polypropylene container, sealed in an aluminum foil pouch (Oliver-Tolas Healthcare Packaging B.V.; Venray, Netherlands). In order to assess its stability during the handling and hold time, samples were taken from three separate growing batches and assayed at baseline and at 1, 2 and 3 months post grinding. Each sample was assayed for loss on drying (LOD), and of the concentrations of the major phytocannabinoids (CBDA, CBD, CBGA, CBN, THCA and THC).
as §1, §2, §3

[4] = Vaporization of THC and terpenes from ground cannabis heated to target temperatures; assay type: physicochemical; details: 135 mg ground cannabis; vaporized THC measured in the aerosol; targets 60-150° C.
Description: The vaporization plots in FIGS. 6A-B show results of an experiment performed by the inventors in which samples of 135 mg of ground cannabis were heated to several target temperatures, including 60° C., 70° C., 80° C., 90° C., 100° C., 110° C., 120° C., 130° C., 140° C. and 150° C. At each of the target temperatures, vaporized THC was measured in the aerosol. At each of the target temperatures, the residual mass of ground cannabis was analyzed using Gas Chromatography —Mass Spectrometry (GC/MS) to determine existence of terpenes, such as: Linalool, Isopulegol, Geraniol, Caryophyllene, 26.82 Humulene<alpha->and Nerolidol. The total terpenes residue (as remaining in the ground cannabis) is indicated by the dashed line in FIG. 6A. Based on the residual mass of terpenes, the released (vaporized) amount terpenes was calculated, by subtracting the measured residual mass from a respective reference mass.

[5] = after four years, room temperature (22 C), light or darkness (storage conditions A and B); cited from earlier work
[6] = THC dose aerosolized by the Syqe inhaler from stored cartridges; assay type: physicochemical; details: inhaler set to 500 μg THC, Mean±95% CI
Description: Methods: MC inflorescences were ground to a fine powder and the concentrations of the major phytocannabinoids therein were analyzed at different time points using ultra-high performance liquid chromatography (U-HPLC). Storage was done under different temperature and humidity conditions, before or after being packaged in Syqe cartridges. MC aerosolized by a the Syqe inhaler using Syqe cartridges stored for up to 2 years at 25° C. was analyzed for THC doses.
as §4
In some embodiments, the Syqe inhaler is preprogrammed with several distinct heating protocols. […]

Structure (SMILES)	change in phytocannabinoid amount [1]	change in phytocannabinoid amount [2]	change in phytocannabinoid concentration during the study period [3]	target temperature at which release started [4] [degrees C.]	THC degraded [5] [%]	aerosolized THC dose ([6]; 6 months at 25° C.) [µg]	aerosolized THC dose ([6]; BL) [µg]
CCCCCc1cc2c(c(O)c1C(=O)O)[C@@H]1C=C(C)CC[C@H]1C(C)(C)O2 (relative stereo) [THCA, (-)-Δ^9-trans-tetrahydrocannabinolic acid]	decreased significantly	decreased significantly	no significant change	–	–	–	–
C=C(C)[C@@H]1CCC(C)=C[C@H]1c1c(O)cc(CCCCC)c(C(=O)O)c1O [CBDA, cannabidiolic acid]	–	no significant change	no significant change	–	–	–	–
CCCCCc1cc(O)c2c(c1)OC(C)(C)c1ccc(C)cc1-2 [CBN, Cannabinol]	increased significantly	increased significantly	no significant change	–	–	–	–
CCCCCc1cc(O)c(C/C=C(\C)CCC=C(C)C)c(O)c1C(=O)O [CBGA, cannabigerolic acid]	decreased significantly	decreased significantly	no significant change	–	–	–	–
CCCCCc1cc(O)c2c(c1)OC(C)(C)[C@@H]1CCC(C)=C[C@@H]21 [THC, (-)-Δ^9-trans-tetrahydrocannabinol]	increased significantly	increased significantly	no significant change	130	~100	486.30 ± 50.56	484.76 ± 31.28
